The values below are quoted from earlier work in patent publication US6156340A, “Orally administrable time release drug containing products” (Duquesne University of the Holy Ghost, priority 1996, dated 2000).

Test in series [1]: not given
This is another data set of the same source.

The conditions of series [2]: repeated oral administration, long term therapy.

Consider `O=C(O)Cc1ccccc1Nc1c(Cl)cccc1Cl` [diclofenac sodium], for which the “water solubility” value was “high water solubility”. In addition, the “absorption” value in series [1] (following oral administration) is recorded as “completely absorbed”. Also, the “metabolism” value in series [1] (in vivo) was “extensive metabolism”. Further, the “elimination half-life in plasma” value in series [1] (plasma) is “relatively short elimination half-life in plasma”. The “side effects” value in series [2] was “frequently causes gastrointestinal disturbances and may cause kidney failure”.
